# Reference: patent US20100041089A1, “IMPROVED METHOD FOR DETECTING CHEMICAL […]” (priority 2006, published 2010)
# Tested on: yeast genes (expressed mRNA)
# Test: DNA chip measurement of expressed mRNA of yeast genes after culture with a toxic chemical substance
# Type: cell-based, Saccharomyces cerevisiae S288C
# Procedure, shortened: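 S. cerevisiae S288C grown at 25 °C in YPD, exposed in log phase for 2 h to a toxicant at growth-inhibiting, non-lethal concentration. Cy3/Cy5-labelled cDNA from poly(A) mRNA hybridized to whole-genome chip at 65 °C >12 h. Ratio to untreated control, ≥2 significant.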
smiles,measurement,setting,value
"C[S+](C)[O-] [(15), Dimethyl sulfoxide]","The level of expressed mRNA in the presence of chemical substance/The level of expressed mRNA in the absence of chemical substance, yeast gene YDL067C","gene YDL067C (mitochondria-located protein gene), yeast cultured two hours with chemical substance, DNA chip fluorescence ratio to control",0.7
same,"The level of expressed mRNA in the presence of chemical substance/The level of expressed mRNA in the absence of chemical substance, yeast gene YDR079W","gene YDR079W (mitochondria-located protein gene), yeast cultured two hours with chemical substance, DNA chip fluorescence ratio to control",0.6
same,"The level of expressed mRNA in the presence of chemical substance/The level of expressed mRNA in the absence of chemical substance, yeast gene YGR062C","gene YGR062C (mitochondria-located protein gene), yeast cultured two hours with chemical substance, DNA chip fluorescence ratio to control",0.5
same,"The level of expressed mRNA in the presence of chemical substance/The level of expressed mRNA in the absence of chemical substance, yeast gene YJL096W","gene YJL096W (mitochondria-located protein gene), yeast cultured two hours with chemical substance, DNA chip fluorescence ratio to control",1.0
same,"The level of expressed mRNA in the presence of chemical substance/The level of expressed mRNA in the absence of chemical substance, yeast gene YJL180C","gene YJL180C (mitochondria-located protein gene), yeast cultured two hours with chemical substance, DNA chip fluorescence ratio to control",0.6
same,level of expressed mRNA in the presence of chemical substance / level in the absence of chemical substance,"yeast gene YAL018C, cultured two hours with the chemical substance",6.9
same,level of expressed mRNA in the presence of chemical substance / level in the absence of chemical substance,"yeast gene YAR047C, cultured two hours with the chemical substance",0.5
same,level of expressed mRNA in the presence of chemical substance / level in the absence of chemical substance,"yeast gene YAR064W, cultured two hours with the chemical substance",1.9
same,level of expressed mRNA in the presence of chemical substance / level in the absence of chemical substance,"yeast gene YBL044W, cultured two hours with the chemical substance",0.7
same,level of expressed mRNA in the presence of chemical substance / level in the absence of chemical substance,"yeast gene YBR012C, cultured two hours with the chemical substance",1.1
same,The level of expressed mRNA in the presence of chemical substance/The level of expressed mRNA in the absence of chemical substance,"yeast gene YBR047W, cultured two hours with substance",0.8
same,level of expressed mRNA in the presence of chemical substance / level in the absence of chemical substance,"yeast gene YBR066C, cultured two hours with the chemical substance",0.4
same,The level of expressed mRNA in the presence of chemical substance/The level of expressed mRNA in the absence of chemical substance,"yeast gene YBR100W, cultured two hours with the chemical substance",1.3
same,level of expressed mRNA in the presence of chemical substance / level in the absence of chemical substance,"yeast gene YBR124W, cultured two hours with the chemical substance",1.0
same,level of expressed mRNA in the presence of chemical substance / level in the absence of chemical substance,"yeast gene YBR162C, cultured two hours with the chemical substance",1.9
same,The level of expressed mRNA in the presence of chemical substance/The level of expressed mRNA in the absence of chemical substance,"yeast gene YBR273C, cultured two hours with substance",0.8
same,level of expressed mRNA in the presence of chemical substance / level in the absence of chemical substance,"yeast gene YBR287W, cultured two hours with the chemical substance",1.3
same,The level of expressed mRNA in the presence of chemical substance/The level of expressed mRNA in the absence of chemical substance,yeast gene YCL009C,6.5
same,The level of expressed mRNA in the presence of chemical substance/The level of expressed mRNA in the absence of chemical substance,"yeast gene YCL040W, cultured for two hours with substance",3.4
same,The level of expressed mRNA in the presence of chemical substance/The level of expressed mRNA in the absence of chemical substance,"yeast gene YCL049C, cultured two hours with substance",1.4
same,level of expressed mRNA in the presence of chemical substance / level in the absence of chemical substance,"yeast gene YCL056C, cultured two hours with the chemical substance",1.7
same,level of expressed mRNA in the presence of chemical substance / level in the absence of chemical substance,"yeast gene YCR007C, cultured two hours with the chemical substance",0.8
same,The level of expressed mRNA in the presence of chemical substance/The level of expressed mRNA in the absence of chemical substance,"yeast gene YCR030C, cultured two hours with the chemical substance",1.3
same,The level of expressed mRNA in the presence of chemical substance/The level of expressed mRNA in the absence of chemical substance,"yeast gene YCR082W, cultured two hours with substance",1.6
same,The level of expressed mRNA in the presence of chemical substance/The level of expressed mRNA in the absence of chemical substance,"yeast gene YCR107W, cultured for two hours with substance",4.8
same,level of expressed mRNA in the presence of chemical substance / level in the absence of chemical substance,"yeast gene YDL046W, cultured two hours with the chemical substance",2.3
same,The level of expressed mRNA in the presence of chemical substance/The level of expressed mRNA in the absence of chemical substance,"yeast gene YDL110C, cultured two hours with substance",1.3
same,The level of expressed mRNA in the presence of chemical substance/The level of expressed mRNA in the absence of chemical substance,"yeast gene YDL222C, cultured two hours with substance",7.1
same,The level of expressed mRNA in the presence of chemical substance/The level of expressed mRNA in the absence of chemical substance,"yeast gene YDR031W, cultured two hours with substance",0.8
same,The level of expressed mRNA in the presence of chemical substance/The level of expressed mRNA in the absence of chemical substance,"yeast gene YDR032C, cultured two hours with substance",1.3
same,level of expressed mRNA in the presence of chemical substance / level in the absence of chemical substance,"yeast gene YDR090C, cultured two hours with the chemical substance",1.1
same,level of expressed mRNA in the presence of chemical substance / level in the absence of chemical substance,"yeast gene YDR128W, cultured two hours with the chemical substance",1.4
same,level of expressed mRNA in the presence of chemical substance / level in the absence of chemical substance,"yeast gene YDR133C, cultured two hours with the chemical substance",0.6
same,level of expressed mRNA in the presence of chemical substance / level in the absence of chemical substance,"yeast gene YDR250C, cultured two hours with the chemical substance",0.7
same,level of expressed mRNA in the presence of chemical substance / level in the absence of chemical substance,"yeast gene YDR278C, cultured two hours with the chemical substance",0.7
same,level of expressed mRNA in the presence of chemical substance / level in the absence of chemical substance,"yeast gene YDR281C, cultured two hours with the chemical substance",0.3
same,level of expressed mRNA in the presence of chemical substance / level in the absence of chemical substance,"yeast gene YDR366C, cultured two hours with the chemical substance",1.4
same,The level of expressed mRNA in the presence of chemical substance/The level of expressed mRNA in the absence of chemical substance,"yeast gene YDR434W, cultured two hours with substance",1.3
same,The level of expressed mRNA in the presence of chemical substance/The level of expressed mRNA in the absence of chemical substance,"yeast gene YDR476C, cultured two hours with substance",2.2
same,The level of expressed mRNA in the presence of chemical substance/The level of expressed mRNA in the absence of chemical substance,yeast gene YDR497C (transport facilitation protein gene),10.1
same,The level of expressed mRNA in the presence of chemical substance/The level of expressed mRNA in the absence of chemical substance,"yeast gene YDR511W, cultured two hours with substance",0.8
same,The level of expressed mRNA in the presence of chemical substance/The level of expressed mRNA in the absence of chemical substance,"yeast gene YDR520C, cultured two hours with substance",1.3
same,The level of expressed mRNA in the presence of chemical substance/The level of expressed mRNA in the absence of chemical substance,"yeast gene YER014W, mitochondria-located protein gene, cultured two hours with substance",2.3
same,The level of expressed mRNA in the presence of chemical substance/The level of expressed mRNA in the absence of chemical substance,"yeast gene YER038C, cultured two hours with substance",0.8
same,The level of expressed mRNA in the presence of chemical substance/The level of expressed mRNA in the absence of chemical substance,"yeast gene YER106W, cultured two hours with substance",6.8
same,The level of expressed mRNA in the presence of chemical substance/The level of expressed mRNA in the absence of chemical substance,"yeast gene YER175C, cultured two hours with substance",1.3
same,level of expressed mRNA in the presence of chemical substance / level in the absence of chemical substance,"yeast gene YFR026C, cultured two hours with the chemical substance",2.3
same,The level of expressed mRNA in the presence of chemical substance/The level of expressed mRNA in the absence of chemical substance,"yeast gene YGL037C, cultured two hours with substance",0.8
same,level of expressed mRNA in the presence of chemical substance / level in the absence of chemical substance,"yeast gene YGL088W, cultured two hours with the chemical substance",0.4
same,The level of expressed mRNA in the presence of chemical substance/The level of expressed mRNA in the absence of chemical substance,"yeast gene YGL204C, cultured two hours with substance",0.8
same,The level of expressed mRNA in the presence of chemical substance/The level of expressed mRNA in the absence of chemical substance,"yeast gene YGL259W, cultured two hours with substance",1.3
same,The level of expressed mRNA in the presence of chemical substance/The level of expressed mRNA in the absence of chemical substance,"yeast gene YGR010W, cultured two hours with substance",1.3
same,level of expressed mRNA in the presence of chemical substance / level in the absence of chemical substance,"yeast gene YGR038W, cultured two hours with the chemical substance",1.1
same,level of expressed mRNA in the presence of chemical substance / level in the absence of chemical substance,"yeast gene YGR139W, cultured two hours with the chemical substance",2.3
same,The level of expressed mRNA in the presence of chemical substance/The level of expressed mRNA in the absence of chemical substance,"yeast gene YGR141W, cultured two hours with the substance",2.6
same,The level of expressed mRNA in the presence of chemical substance/The level of expressed mRNA in the absence of chemical substance,"yeast gene YGR142W, cultured two hours with substance",1.3
same,The level of expressed mRNA in the presence of chemical substance/The level of expressed mRNA in the absence of chemical substance,"yeast gene YGR153W, cultured two hours with substance",1.3
same,level of expressed mRNA in the presence of chemical substance / level in the absence of chemical substance,"yeast gene YGR243W, cultured two hours with the chemical substance",0.8
same,level of expressed mRNA in the presence of chemical substance / level in the absence of chemical substance,"yeast gene YGR293C, cultured two hours with the chemical substance",0.7
same,level of expressed mRNA in the presence of chemical substance / level in the absence of chemical substance,"yeast gene YHL006C, cultured two hours with the chemical substance",0.6
same,level of expressed mRNA in the presence of chemical substance / level in the absence of chemical substance,"yeast gene YHR095W, cultured two hours with the chemical substance",0.8
same,level of expressed mRNA in the presence of chemical substance / level in the absence of chemical substance,"yeast gene YHR105W, cultured two hours with the chemical substance",0.9
same,The level of expressed mRNA in the presence of chemical substance/The level of expressed mRNA in the absence of chemical substance,"yeast gene YHR138C, cultured two hours with substance",2.2
same,The level of expressed mRNA in the presence of chemical substance/The level of expressed mRNA in the absence of chemical substance,yeast gene YHR142W,4.8
same,level of expressed mRNA in the presence of chemical substance / level in the absence of chemical substance,"yeast gene YHR181W, cultured two hours with the chemical substance",1.4
same,The level of expressed mRNA in the presence of chemical substance/The level of expressed mRNA in the absence of chemical substance,"yeast gene YIL041W, cultured two hours with substance",1.3
same,The level of expressed mRNA in the presence of chemical substance/The level of expressed mRNA in the absence of chemical substance,"yeast gene YIL060W, cultured two hours with substance",1.3
same,The level of expressed mRNA in the presence of chemical substance/The level of expressed mRNA in the absence of chemical substance,"yeast gene YIL117C, cultured two hours with substance",7.5
same,level of expressed mRNA in the presence of chemical substance / level in the absence of chemical substance,"yeast gene YIL127C, cultured two hours with the chemical substance",0.7
same,The level of expressed mRNA in the presence of chemical substance/The level of expressed mRNA in the absence of chemical substance,"yeast gene YIL143C, DNA repair protein genes, cultured two hours with substance",1.3
same,The level of expressed mRNA in the presence of chemical substance/The level of expressed mRNA in the absence of chemical substance,"yeast gene YIR041W, cultured two hours with the chemical substance",1.3
same,level of expressed mRNA in the presence of chemical substance / level in the absence of chemical substance,"yeast gene YJL017W, cultured two hours with the chemical substance",1.1
same,The level of expressed mRNA in the presence of chemical substance/The level of expressed mRNA in the absence of chemical substance,yeast gene YJL034W (transport facilitation protein gene),7.9
same,level of expressed mRNA in the presence of chemical substance / level in the absence of chemical substance,"yeast gene YJL037W, cultured two hours with the chemical substance",1.6
same,The level of expressed mRNA in the presence of chemical substance/The level of expressed mRNA in the absence of chemical substance,"yeast gene YJL066C, cultured two hours with substance",1.3
same,level of expressed mRNA in the presence of chemical substance / level in the absence of chemical substance,"yeast gene YJL097W, cultured two hours with the chemical substance",1.1
same,The level of expressed mRNA in the presence of chemical substance/The level of expressed mRNA in the absence of chemical substance,"yeast gene YJL108C, cultured two hours with substance",4.0
same,The level of expressed mRNA in the presence of chemical substance/The level of expressed mRNA in the absence of chemical substance,"yeast gene YJL149W, cultured two hours with substance",9.0
